Values of other authors in patent US8071772B2, “Spirolactam bicyclic CGRP receptor antagonists” (Merck Sharp & Dohme Corp., priority 2005, dated 2011).
No end group written: not given here.

Legend:
facial blood flow [1] = conditions: marmoset; Doods et al. 2000
facial blood flow [2] = conditions: rat; Escott et al. 1995
[3] = test system: diameter of the middle meningeal artery; conditions: rat, prior administration; Williamson et al. 1997

Compound: NCCCC[C@H](NC(=O)[C@@H](Cc1cc(Br)c(O)c(Br)c1)NC(=O)N1CCC(N2Cc3ccccc3NC2=O)CC1)C(=O)N1CCN(c2ccncc2)CC1 [BIBN4096BS]
- effect on increase in facial blood flow (facial blood flow [1]): blocked

Compound: CGRP(8-37): a peptide CGRP antagonist; fragment of CGRP that lacks seven N-terminal amino acid residues (VTHRLAGLLSRSGGVVKNNFVPTNVGSKAF; ends and bridges not checked; UniProt P06881 90-119, looked up, fragment)
- effect on increased facial blood flow (facial blood flow [2]): inhibited
- effect on increase of middle meningeal artery diameter [3]: blocked
